According to PubChem BioAssay (NCI):
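1) Cells in 96-well plates. 2) Compound, 48 h, 5 concentrations. 3) Linear interpolation between surrounding doses. 4) Unreached endpoint = highest concentration. TGI is the concentration that stops growth completely.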

Assays:
Assay in all cases: DTP human tumour cell line panel, 48 h
NCI-H23 lung = tested on: NCI-H23 lung
SK-MEL-5 melanoma = tested on: SK-MEL-5 melanoma
SK-MEL-2 melanoma = tested on: SK-MEL-2 melanoma
CAKI-1 renal = tested on: CAKI-1 renal
EKVX NSCLC = tested on: EKVX NSCLC
MOLT-4 leukemia = tested on: MOLT-4 leukemia
SK-OV-3 ovarian = tested on: SK-OV-3 ovarian
HL-60(TB) leukemia = tested on: HL-60(TB) leukemia

| SMILES | TGI (NCI-H23 lung) [µM] | TGI (SK-MEL-5 melanoma) [µM] | TGI (SK-MEL-2 melanoma) [µM] | TGI (CAKI-1 renal) [µM] | TGI (EKVX NSCLC) [µM] | TGI (MOLT-4 leukemia) [µM] | TGI (SK-OV-3 ovarian) [µM] | TGI (HL-60(TB) leukemia) [µM] |
| --- | --- | --- | --- | --- | --- | --- | --- | --- |
| CN(C)/C=N/c1nc2c(ncn2C2OC(CO)C(O)C2O)c(=O)[nH]1 (stereo unspecified) | > 100 | > 100 | > 100 | > 100 | > 100 | > 100 | > 100 | > 100 |
| COc1ccc2c3c([nH]c2c1[N+](=O)[O-])C(C)=NCC3 | – | – | > 100 | > 100 | > 100 | > 100 | – | > 100 |
| Cn1c2c(c3ccccc31)C1CCCCCCC1C1C(=O)OC(=O)C21 (stereo unspecified) | > 100 | > 100 | – | – | > 100 | 65.8 | > 100 | 63.1 |
| CC1=NNC(=O)C2CCC(=O)N12 (stereo unspecified) | – | > 100 | > 100 | > 100 | > 100 | > 100 | > 100 | > 100 |
| COC(=O)c1cc2c(s1)C(=O)c1ccccc1-2 | > 100 | > 100 | > 100 | > 100 | > 100 | > 100 | > 100 | > 100 |
| O=[N+]([O-])c1ccc(C2=Nn3cnnc3SC2)o1 | – | 31.5 | 50.7 | – | – | 43.2 | – | 37.6 |
| O=C(CCn1[nH]c(=O)c(Cl)c(Cl)c1=O)NO | > 100 | > 100 | > 100 | > 100 | > 100 | > 100 | > 100 | > 100 |
| [N-]=[N+]=NC12CC3C4CC5CC3C(C1)C(C5)C4C2 | > 100 | > 100 | > 100 | > 100 | > 100 | > 100 | > 100 | – |
| CC(C)(C)CC(C)(C)c1cc2c(O)c(c1)Cc1cc(C(C)(C)CC(C)(C)C)cc(c1O)Cc1cc(C(C)(C)CC(C)(C)C)cc(c1O)Cc1cc(C(C)(C)CC(C)(C)C)cc(c1O)C2 | > 100 | > 100 | > 100 | – | > 100 | > 100 | – | > 100 |
| CN(C)c1ccc(C(C=C2c3ccccc3Sc3ccccc32)=C(C#N)C#N)cc1 | > 100 | > 100 | > 100 | > 100 | > 100 | > 100 | > 100 | > 100 |
| COc1ccc(C(=O)C(c2ccc(OC)cc2)C2(O)C(=O)Nc3ccc([N+](=O)[O-])cc32)cc1 (stereo unspecified) | > 100 | – | > 100 | > 100 | > 100 | > 100 | > 100 | > 100 |
| CCOc1ccccc1C=C1c2ccccc2C(=O)c2ccccc21 | > 100 | 20.8 | 11.9 | 6.58 | 61.4 | 29.4 | 8.67 | 8.46 |
| CC(C)c1ccccc1NC(=O)CCc1n[nH]c(=S)o1 | > 100 | > 100 | – | > 100 | > 100 | > 100 | > 100 | > 89.2 |
| N#Cc1nc(Nc2cccc3ccccc23)sc1N | 47.2 | – | 79.2 | > 100 | – | > 100 | > 100 | > 100 |
| CC(C)N(C(=O)C12C3C4C5(C#N)C3C1(C#N)C5C42I)C(C)C (stereo unspecified) | > 100 | > 100 | > 100 | > 100 | > 100 | > 100 | > 100 | > 55.6 |
| O=C(/C=C/c1ccccc1O)c1ccccc1O | > 100 | > 100 | > 100 | > 100 | > 100 | > 100 | > 100 | > 100 |
| COc1cc(C(Cc2ccccc2)NC(C)=O)oc(=O)c1 (stereo unspecified) | > 100 | > 100 | > 100 | > 100 | > 100 | – | > 100 | > 100 |
| COc1cccc(/C=C/c2cc(OC)c(OC)c(OC)c2)c1 | > 100 | > 100 | > 100 | – | > 100 | > 100 | > 100 | – |
| Cc1cc(CC(O)c2ccc(Cl)c(Cl)c2)nc(=O)[nH]1 (stereo unspecified) | > 100 | > 100 | > 100 | 90 | 96.7 | – | > 100 | > 100 |
| O=S1(=O)C[C@H](O)[C@H](O)CS1 | > 100 | > 100 | – | > 100 | > 100 | > 100 | > 100 | > 100 |
| COC1(OC)CC2C(=O)N(Cc3ccccc3)C1C(S(=O)(=O)c1ccccc1)C2S(=O)(=O)c1ccccc1 (stereo unspecified) | 28.1 | 34 | – | 26.9 | – | 46.6 | 54.2 | 17.3 |
| Cc1nn(-c2ccccc2)c2nc(N3CCOCC3)nnc12 | > 100 | > 100 | > 100 | > 100 | > 100 | > 100 | > 100 | – |
